# Assay results: patent publication US5212201A, “Xanthine oxidase inhibitor” (priority 1989, dated 1993)
# Where two headings read alike, the source gives them in different places.
# Legend:
# xanthine oxidase = xanthine oxidase (Bos taurus, UniProt P80457); assay: xanthine oxidase inhibitory activity (absorbance at 290 nm, xanthine substrate); format: biochemical; settings: for activity compared with known xanthine oxidase inhibitors allopurinol, luteolin / activity compared with quercetin: as seen from Table 1; for Total activity: purification from Perilla frutescens (3.73 kg fresh weight); for Total activity / Specific activity: 1 U = activity required for inhibiting 50% of xanthine oxidase; for Specific activity: purification from Perilla frutescens; for Relative intensity: relative to 1.00 (XOI-A and allopurinol), from concentration for 50% inhibitory rate
# Description: This xanthine oxidase inhibitory activity can be determined, for example, as follows:
# Enzyme solution: An enzyme solution is prepared by dissolving 150 μl of xanthine oxidase (15.2 units/ml) in 10 ml of 1/15 M phosphate buffer (pH 7.5).
# Substrate solution: A substrate solution is prepared by heating 22.8 mg of xanthine in 1 liter of water to dissolve it.
# Determination: 0.1 ml of the enzyme solution and 2.9 ml of phosphate buffer (the same as that described above) are admixed with 1.0 ml of the sample solution and the mixture is incubated at 37° C. for 10 minutes.
# Then, 1 ml of the substrate solution preincubated at 37° C. is added to this reaction mixture and, after reaction for 30 minutes, an absorbance at 290 nm (D1) is measured.
# Separately, an absorbance at 290 nm (D2) of a reaction mixture obtained by the similar reaction procedure using a heat inactivated enzyme, an absorbance (D3) without addition of the sample solution, and absorbance (D4) of a reaction mixture obtained by using a heat-inactivated enzyme without addition of the sample solution are measured. By using the values obtained by these measurements, the inhibitory rate of xanthine oxidase is calculated by using the following equation:
# Inhibitory Rate (%)={1-(D1 -D2)/(D3 -D4 }×100
# In Table 2, 1 U represents the activity required for inhibiting 50% of xanthine oxidase.
# solubility in solvents = format: physicochemical
# [1] = xanthine oxidase, pH 7.5, 37° C., reaction for 30 minutes, read-out: Concentration for 50% inhibitory rate (converted)
# Chain of xanthine oxidase (P80457 whole entry): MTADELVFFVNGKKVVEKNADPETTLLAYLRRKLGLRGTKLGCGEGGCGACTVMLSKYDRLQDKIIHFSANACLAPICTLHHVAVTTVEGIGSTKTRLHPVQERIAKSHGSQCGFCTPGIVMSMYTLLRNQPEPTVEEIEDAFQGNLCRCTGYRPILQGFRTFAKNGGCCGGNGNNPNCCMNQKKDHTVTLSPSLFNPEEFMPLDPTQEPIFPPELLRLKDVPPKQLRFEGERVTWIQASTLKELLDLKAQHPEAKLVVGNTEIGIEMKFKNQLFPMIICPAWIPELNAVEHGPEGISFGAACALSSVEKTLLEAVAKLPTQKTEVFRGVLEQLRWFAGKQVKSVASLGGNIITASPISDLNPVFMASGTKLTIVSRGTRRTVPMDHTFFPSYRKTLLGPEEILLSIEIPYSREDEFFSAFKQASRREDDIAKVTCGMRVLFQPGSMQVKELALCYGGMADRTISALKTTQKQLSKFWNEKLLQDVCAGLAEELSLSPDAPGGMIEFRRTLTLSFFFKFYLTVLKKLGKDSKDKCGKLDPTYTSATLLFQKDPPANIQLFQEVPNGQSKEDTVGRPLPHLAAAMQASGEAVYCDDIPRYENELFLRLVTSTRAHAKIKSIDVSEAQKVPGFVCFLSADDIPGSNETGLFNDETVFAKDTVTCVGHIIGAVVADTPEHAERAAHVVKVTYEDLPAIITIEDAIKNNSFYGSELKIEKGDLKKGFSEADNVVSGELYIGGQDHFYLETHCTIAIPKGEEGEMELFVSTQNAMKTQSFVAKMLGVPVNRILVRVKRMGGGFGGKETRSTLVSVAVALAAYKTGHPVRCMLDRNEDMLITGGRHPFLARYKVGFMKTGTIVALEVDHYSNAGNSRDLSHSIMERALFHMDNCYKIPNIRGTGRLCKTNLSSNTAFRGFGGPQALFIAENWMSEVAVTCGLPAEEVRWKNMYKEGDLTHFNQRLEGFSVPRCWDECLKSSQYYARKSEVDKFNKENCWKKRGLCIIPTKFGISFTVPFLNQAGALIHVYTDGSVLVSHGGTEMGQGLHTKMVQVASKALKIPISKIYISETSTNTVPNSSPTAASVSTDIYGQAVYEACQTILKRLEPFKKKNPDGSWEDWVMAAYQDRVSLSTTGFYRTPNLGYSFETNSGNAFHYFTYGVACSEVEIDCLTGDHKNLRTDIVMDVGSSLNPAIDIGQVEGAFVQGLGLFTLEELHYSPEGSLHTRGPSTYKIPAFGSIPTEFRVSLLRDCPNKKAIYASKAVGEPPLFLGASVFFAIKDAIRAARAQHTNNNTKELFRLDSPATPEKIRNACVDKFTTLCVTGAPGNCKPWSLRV
Compound,"activity compared with known xanthine oxidase inhibitors allopurinol, luteolin (xanthine oxidase)",activity compared with quercetin (xanthine oxidase),Total activity (xanthine oxidase),Specific activity (xanthine oxidase),"Specific activity, figure in parentheses (relative to ethanol extract = 1) (xanthine oxidase; purification step)",Relative intensity (xanthine oxidase),IC50 (xanthine oxidase; [1]),"solubility in methanol, propanol, acetone, ethyl acetate or acetonitrile (solubility in solvents)","solubility in water, chloroform or hexane (solubility in solvents)","Total activity, figure in parentheses (relative to ethanol extract = 100) (xanthine oxidase; purification step, ethanol extract = 100)",IC50 (xanthine oxidase)
"O=C(/C=C/c1ccc(O)c(O)c1)O/C=C\c1cc(O)cc(O)c1 [XOI-B, (Z,E)-2-(3,5-dihydroxyphenyl)ethenylester of 3-(3,4-dihydroxyphenyl)-2-propenoic acid]",almost the same as that of luteolin,superior to that of quercetin,0.09 × 10^6 (U),8040 μ/mg,38,0.17,395 nM,readily soluble,slightly soluble,–,–
"O=C(/C=C/c1ccc(O)c(O)c1)O/C=C\c1ccc(O)c(O)c1 [XOI-A, (Z,E)-2-(3,4-dihydroxyphenyl)ethenylester of 3-(3,4-dihydroxyphenyl)-2-propenoic acid]",comparable to that of allopurinol,superior to that of quercetin,1.96 × 10^6 (U),46600 μ/mg,222,–,66.8 nM,readily soluble,slightly soluble,6,–
"O=c1cc(-c2ccc(O)c(O)c2)oc2cc(O)cc(O)c12 [Luteolin, luteolin, reference compound]",–,–,–,–,–,0.19,–,–,–,–,384 nM
